Holding throughout (assay type): cell-based, mouse
Assay [1] relates to CD44+ CD4+ T cells. Description: ICS, ZIKV SD001-infected Ifnar1-/- HLA-DRB1*0101 mice. Particulars: for % CD4+ CD44+ T cells (ZIKV) INFγ+ / % CD4+ CD44+ T cells (ZIKV) INFγ+ TNFα+ / % CD4+ CD44+ T cells (ZIKV) IL-2+: 7 days after ZIKV SD001, 6 h stimulation; for cytokines produced by ZIKV-primed CD4+ T cells on peptide stimulation: ZIKV SD001, day 7. On the procedure: Ifnar1^−/− HLA-DRB1*0101 mice were infected retro-orbitally with 1×10^2 FFU of ZIKV strain SD001 for 7 days. Splenocytes were stimulated in vitro with the indicated ZIKV-derived HLA-DRB1*0101-binding peptides for 6 h, and the frequency of CD44^+ CD4^+ T cells producing IFNγ, TNF, or IFNγ plus TNF (A), IL-2 (B), and IL-17 (C) were detected using the ICS assay. Data represent the mean±s.e.m. of four independent experiments (n=3-5 mice/experiment; total 16 mice). *P<0.05, **P<0.01, ***P<0.001, ****P<0.0001 by two-tailed Mann-Whitney test. Negative and positive refer to cells incubated alone or with PMA/ionomycin, respectively. […]
(§1) For the 30-peptide epitope screen, 5-week-old female or male mice were infected retro-orbitally (r.o.) with either 1×10^2 focus-forming units (FFU) of ZIKV SD001 or 2×10^3 FFU of DENV2 S221 in 200 μl of 10% fetal bovine serum in phosphate-buffered saline (FBS/PBS). Seven days after infection, spleens were removed and single-cell splenocyte suspensions were prepared. A total of 1×10^6 splenocytes was plated in each well of a 96-well U-bottom plate and stimulated with individual peptides (20 μg crude peptide per well) for 6 h. One hour into the incubation, brefeldin A (GolgiPlug, BD Biosciences) was added to the cells. Positive and negative controls were splenocytes stimulated with phorbol-12-myristate-13-acetate (PMA, 0.1 μg/ml) and ionomycin (1 μg/ml) or incubated alone, respectively.
(§2) After incubation of splenocytes with peptides or PMA/ionomycin, cells were harvested, washed, and incubated with Fc Block (CD16/CD32 mAb 2.4G2, BD Biosciences), followed by staining with fixable Live/Dead blue viability stain (Life technologies) and the following antibodies: PerCP-Cy5.5-conjugated anti-CD3 mAb (clone 145-2C11, Tonbo), APC-eFluor780-conjugated anti-CD4 mAb (clone GK1.5, Invitrogen), Brilliant Violet (BV) 785-conjugated anti-CD44 mAb (clone IMT, Biolegend), PE-conjugated anti-CD11a (clone M17/4, Biolegend), BV605-conjugated anti-CD49d (clone 9C10(MFR4.B, Biolegend), PE-conjugated anti-CD25 mAb (clone PC61, Biolegend), PE-conjugated or biotin-conjugated anti-CD185 mAb (CXCR5, clone SPRC15; Invitrogen), BV 605-conjugated anti-[…] mAb (PD1, clone 29F.1A12; Biolegend), and/or BV 421-conjugated streptavidin (#405225, Biolegend). Cells were then fixed and permeabilized using Cytofix/Cytoperm solution (BD Biosciences), followed by staining with FITC-conjugated anti-IFNγ mAb (clone XMG1.2, Tonbo), Alexa Fluor 700- or APC-conjugated anti-TNF mAb (clone MP6-XT22, eBioscience), PE-, BV 421-, or BV 711-conjugated anti-IL-2 mAb (clone JES6-5H4, Biolegend), APC-conjugated anti-IL-4 mAb (clone 11B11, Biolegend), PE-conjugated anti-IL-5 mAb (clone TRFK5, eBioscience), BV510-conjugated anti-IL-17A mAb (clone 17B7, eBioscience), and/or Alexa Fluor 700-conjugated anti-FoxP3 mAb (clone FJK-16S, eBioscience). Data were collected using an LSR Fortessa flow cytometer (BD Biosciences) and analyzed using FlowJo software X 10.0.7 (Tree Star).

The subject of assay [2] is CD44+ CD4+ T cells. Description: ICS, naive or DENV2-immune Ifnar1-/- HLA-DRB1*0101 mice challenged with ZIKV. Particulars: day 7 after ZIKV challenge; for expansion of peptide-reactive CD4+ T cells: naive mice; for CD4+ T cell response to peptide: DENV2-immune mice.
Text: Ifnar1−/−HLA-DRB1*0101 mice were primed intraperitoneally with 2×103 FFU of DENV2 S221 for 4 weeks. Naïve mice and DENV2-immune mice were challenged retro-orbitally with 1×10^4 FFU of ZIKV strain SD001 for 3 or 7 days. Splenocytes were stimulated in vitro with the indicated ZIKV-specific and DENV2/ZIKV-cross-reactive epitopes. The frequency of CD44+ CD4+ T cells producing IFNγ, IFNγ plus TNF, or IL-2 were detected using the ICS assay. (E) The combined data for positive peptide responses in (FIGS. 27A-27D). Numbers in parentheses indicate the number of positive peptides. Data represent the mean±s.e.m. of three or four independent experiments, with a total of 9 mice/group for A and C, 14/group for B, and 15/group for D. *P<0.05, **P<0.01, ***P<0.001, ****P<0.0001 by two-tailed Mann-Whitney test. Negative and positive refer to cells incubated alone or with PMA/ionomycin, respectively.
Five-week-old female or male mice were inoculated intraperitoneally (i.p.) with 2×10^3 FFU of DENV2 S221. […] Positive and negative controls were included in all experiments.
as §2

Assay [3] relates to CD44+ CD4+ T cells. Kind of assay: ICS, DENV2 S221-infected Ifnar1-/- HLA-DRB1*0101 mice. To be noted: for cross-reactive response by DENV2-primed CD4+ T cells / cytokines produced by DENV2-primed CD4+ T cells on peptide stimulation: DENV2 S221, day 7. On the procedure: Ifnar1^−/− HLA-DRB1*0101 mice were infected intraperitoneally with 2×10^3 FFU of DENV2 strain […] for 7 days. Splenocytes were stimulated in vitro with the indicated ZIKV-derived HLA-DRB1*0101-binding peptides for 6 h. The frequency of CD44^+ CD4^+ T cells producing IFNγ, TNF, or IFNγ plus TNF (A) or IL-2 (B) were detected using the ICS assay. Data represent the mean±s.e.m. of three independent experiments (n=3-4 mice/experiment; total 10 mice). *P<0.05, **P<0.01, ***P<0.001, ****P<0.0001 by two-tailed Mann-Whitney test. Negative and positive refer to cells incubated alone or with PMA/ionomycin, respectively.
as §1, §2

The mark [4] stands for this setting: 7 days after DENV2 S221, 6 h stimulation.

For IKKFKKDLAAMLRII [C81-95], in assay [1], the “% CD4+ CD44+ T cells (ZIKV) INFγ+” value is 0.19% and the “cytokines produced by ZIKV-primed CD4+ T cells on peptide stimulation” value is “produce only IFNγ”. In addition, in assay [1] (ZIKV-primed CD4+ T cells), the “identification as Th1 epitope (IFNγ, TNF, IL-2 ICS)” value (“identification as Th1 epitope” for short) is given as “Th1 epitopes” and the “identification as Th17 epitope (IL-17 ICS)” value is listed as “Th17 epitope”. For the same sequence, in assay [2], the “expansion of peptide-reactive CD4+ T cells” value (shortened to “expansion”) was “significant expansion”.
In the case of FLRFTAIKPSLGLIN [C53-67], in assay [1], the “% CD4+ CD44+ T cells (ZIKV) INFγ+” value came to 0.265% and the “cytokines produced by ZIKV-primed CD4+ T cells on peptide stimulation” value was “produce only IFNγ”. The “identification as Th1 epitope” value in assay [1] (ZIKV-primed CD4+ T cells) was “Th1 epitopes”. Further, in assay [2], the “CD4+ T cell response to peptide” value is listed as “increased responses”.
For the sequence WAIYAALTTFITPAV [NS4B40-54], in assay [1], the “% CD4+ CD44+ T cells (ZIKV) INFγ+ TNFα+” value was determined as 0.049% and the “cytokines produced by ZIKV-primed CD4+ T cells on peptide stimulation” value was “stimulated IFNγ plus TNF production”. Further, the “identification as Th1 epitope” value in assay [1] (ZIKV-primed CD4+ T cells) is “Th1 epitopes”. For the same sequence, the “% CD4+ CD44+ T cells (DENV) TNFα+” value in assay [3] (setting [4]) is listed as 0.367%. Further, in assay [3], the “cross-reactive response by DENV2-primed CD4+ T cells” value (shortened to “cross-reactive response”) was “elicited cross-reactive responses” and the “cytokines produced by DENV2-primed CD4+ T cells on peptide stimulation” value is recorded as “induced only TNF-producing cells”.
Take LPFVMALGLTAVRLV [NS2A134-198]: in assay [1], the “cytokines produced by ZIKV-primed CD4+ T cells on peptide stimulation” value was “did not elicit a response by ZIKV-primed cells”. The “% CD4+ CD44+ T cells (DENV) TNFα+” value in assay [3] (setting [4]) was determined as 0.397%. Also, the “cytokines produced by DENV2-primed CD4+ T cells on peptide stimulation” value in assay [3] was “induce TNF production”.
For NLEYRIMLSVHGSQH [E134-148], in assay [1], the “% CD4+ CD44+ T cells (ZIKV) IL-2+” value was determined as 0.19% and the “cytokines produced by ZIKV-primed CD4+ T cells on peptide stimulation” value is “stimulated only IL-2 production”. In addition, the “identification as Th1 epitope” value in assay [1] (ZIKV-primed CD4+ T cells) is “Th1 epitopes”. Further, the “% CD4+ CD44+ T cells (DENV) IL-2+” value in assay [3] (setting [4]) is 0.459%. Further, in assay [3], the “cross-reactive response” value is given as “elicited cross-reactive responses” and the “cytokines produced by DENV2-primed CD4+ T cells on peptide stimulation” value is “induced only IL-2-producing cells”.
As to LALIAAFKVRPALLV [NS2A66-80], in assay [1], the “% CD4+ CD44+ T cells (ZIKV) INFγ+” value is recorded as 0.167%, the “% CD4+ CD44+ T cells (ZIKV) INFγ+ TNFα+” value is 0.058% and the “cytokines produced by ZIKV-primed CD4+ T cells on peptide stimulation” value is “stimulated IFNγ plus TNF production”. Also, in assay [1] (ZIKV-primed CD4+ T cells), the “identification as Th1 epitope” value was “Th1 epitopes”. In addition, in assay [3] (setting [4]), the “% CD4+ CD44+ T cells (DENV) INFγ+” value is reported as 0.39%, the “% CD4+ CD44+ T cells (DENV) INFγ+ TNFα+” value turned out to be 0.343% and the “% CD4+ CD44+ T cells (DENV) TNFα+” value was found to be 0.199%. In assay [3], the “cross-reactive response” value is “elicited cross-reactive responses” and the “cytokines produced by DENV2-primed CD4+ T cells on peptide stimulation” value is on record as “induced IFNγ-plus TNF-producing cells”. For the same sequence, in assay [2], the “CD4+ T cell response to peptide” value is “increased responses” and the “expansion” value is listed as “significant expansion”.
Turning to GAAFKSLFGGMSWFS [E450-464], in assay [1], the “% CD4+ CD44+ T cells (ZIKV) INFγ+” value was determined as 0.183%, the “% CD4+ CD44+ T cells (ZIKV) INFγ+ TNFα+” value amounted to 0.078% and the “cytokines produced by ZIKV-primed CD4+ T cells on peptide stimulation” value is “stimulated IFNγ plus TNF production”. Also, in assay [1] (ZIKV-primed CD4+ T cells), the “identification as Th1 epitope” value is “Th1 epitopes”. The “CD4+ T cell response to peptide” value in assay [2] was “increased responses”.
As for GAAFGVMEALGTLPG [NS3601-NS4A12], in assay [1], the “% CD4+ CD44+ T cells (ZIKV) INFγ+” value worked out at 0.203%, the “% CD4+ CD44+ T cells (ZIKV) INFγ+ TNFα+” value is recorded as 0.102% and the “cytokines produced by ZIKV-primed CD4+ T cells on peptide stimulation” value is “stimulated IFNγ plus TNF production”. Further, the “identification as Th1 epitope” value in assay [1] (ZIKV-primed CD4+ T cells) is “Th1 epitopes”. Besides, in assay [2], the “CD4+ T cell response to peptide” value is on record as “increased responses” and the “expansion” value is “significant expansion”.
As for FGGLKRLPAGLLLGH [C27-41], in assay [1], the “% CD4+ CD44+ T cells (ZIKV) IL-2+” value was 0.08%; the “% CD4+ CD44+ T cells (ZIKV) INFγ+” value came out at 0.191%; the “% CD4+ CD44+ T cells (ZIKV) INFγ+ TNFα+” value amounted to 0.1%; the “cytokines produced by ZIKV-primed CD4+ T cells on peptide stimulation” value is “stimulated IFNγ, TNF, and IL-2 production”. Also, the “identification as Th1 epitope” value in assay [1] (ZIKV-primed CD4+ T cells) is listed as “Th1 epitopes”. Moreover, in assay [2], the “CD4+ T cell response to peptide” value is on record as “increased responses” and the “expansion” value is listed as “significant expansion”.

The values are drawn from patent US11806393B2, “Flavivirus peptide sequences, epitopes, and methods and uses thereof” (priority 2017, dated 2023).
